Assay results reported in patent publication US20250101026A1, “Functionalized Allopurinol Derivatives for Treatment of Alzheimer’s Disease” (BOARD OF REGENTS OF THE UNIVERSITY OF NEBRASKA, priority 2022, published 2025).
Several values for one entry are separate records, joined by “and”; a condition that tells them apart may be missing. Identical values can stand only once. Entries after “also recorded” stand apart in the source; their conditions may differ.

What was measured:
SH-SY5Y cells [1] = test: Mitochondrial Stress Test in Aβ-treated SH-SY5Y cells (extracellular flux analyzer); format: cell-based, human; settings: for proton leak, ATP production and maximal respiration: restoration of mitochondrial function lost by Aβ: then 25 μM Aβ
Procedure: Mitochondrial Stress Test. […] After 48 hours, media was replaced with assay medium consisting of XF Base Medium supplemented with 10 mM glucose, 10 mM pyruvic acid, and 1 mM L-glutamine. Subsequently, the analysis of mitochondrial oxygen consumption rate (OCR) was performed in a flux analyzer. The OCR values were obtained both during baseline (prior to addition of any Mito Stress Test substances), and after the addition of […], 2 μM FCCP and 0.5 μM rotenone+0.5 μM antimycin A, respectively. Prior to analysis, data were corrected by withdrawing non-mitochondrial respiration (measured after the injection of rotenone and antimycin A) from all measured OCR values. After the experiment, cells were lysed using RIPA buffer and protease inhibitor cocktail, then proteins were quantified via BCA assay. Results were normalized to protein concentration of each well to its OCR value.

Aβ-ABAD PPI = molecular target: T1, Aβ-ABAD PPI (Homo sapiens, UniProt Q99714); test: Estradiol ELISA assay: rescue of Aβ-induced reduction of estradiol levels in SH-SY5Y cells; format: cell-based
T1 construct: wildtype human SH-SY5Y cell lines, which are known to express ABAD; endogenous in cells; host or cells: SH-SY5Y
T1 sequence (Q99714 2-261 limits assumed): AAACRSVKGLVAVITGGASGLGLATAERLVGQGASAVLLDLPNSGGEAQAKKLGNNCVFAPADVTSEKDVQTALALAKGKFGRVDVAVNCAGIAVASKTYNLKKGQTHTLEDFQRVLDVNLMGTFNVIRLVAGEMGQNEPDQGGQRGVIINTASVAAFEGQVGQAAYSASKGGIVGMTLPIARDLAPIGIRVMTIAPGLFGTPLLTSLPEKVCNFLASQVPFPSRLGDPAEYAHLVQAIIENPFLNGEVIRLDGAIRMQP
Procedure: (§1) Cell Culture. The cell line SH-SY5Y was cultured in DMEM/F12 media supplemented with 10% fetal bovine serum, 1% penicillin-streptomycin and maintained as monolayer cultures in a humidified atmosphere containing 5% CO2 at 37° C.^42 All cell lines were authenticated via short tandem repeat analysis and tested for mycoplasma using the a commercial mycoplasma detection kit as per the manufacturer's instructions, showing no contamination. Where indicated, cells were also cultured in DMEM/low glucose media. All compounds were diluted to 20 mM solution in DMSO and were serially diluted in cell culture media for cell treatments to a final concentration range of 0.01 to 100 μM, maintaining the final DMSO concentration at less than 1%. Positive control compound HupA was serially diluted in a similar fashion as the synthesized compounds.
(§2) Amyloid Preparation. The peptide Aβ1-42, referred to as “Aβ”, was obtained from a commercial source. The oligomers of Aβ were prepared using an established method,^43 Aβ peptide was resuspended in 0.5 mM NaOH at a concentration of […] and stored at −80° C. For use in cell cultures, the stock solution was incubated at 37° C. for 5-7 days. Before use, the peptide was diluted to 25 μM in DMEM/low glucose media.
Estradiol ELISA assay. SH-SY5Y cells were treated with compounds (24 hours), followed by Aβ (72 hours) in a similar fashion to that employed in the cell viability assays, the cell culture medium was collected, and cells were lysed using RIPA buffer and protease inhibitor cocktail, then proteins were quantified via BCA assay. An estradiol assay was performed. In brief, the plate was loaded with samples, along with the estradiol tracer and the specific antiserum to estradiol and incubated for one hour at room temperature. After five washing steps, Ellman's Reagent was added, and the plate developed for 60 minutes with gentle shaking at room temperature. The calculated estradiol concentration was normalized to the total protein content of the samples.
Statistical Analyses. The IC50 values of each compound were acquired from a single experiment with each inhibitor concentration run in triplicate and the statistical significance was calculated using the Student t test, or a one-way or two-way ANOVA. A P value of <0.05 was considered statistically significant. IC50 values were calculated.
To determine the effect of Aβ on estradiol production, and ABAD's role in this process, wildtype human SH-SY5Y cell lines, which are known to express ABAD, were incubated for 72 hours with Aβ.^20 Estradiol levels in the cell lysate were measured with a commercial ELISA-based estradiol assay. […] To determine if AG18051 treatment affects Aβ-induced reduction of estradiol levels, 0.1 or 1 μM AG18051 was preincubated in SH-SY5Y cells for 24 hours prior to Aβ exposure. […] AG18051 at 1 μM protected SH-SY5Y cells from Aβ-induced reduction of estradiol production to a greater significance than HupA. This confirms literature reports that AG18051 is neuroprotective and that it exerts this effect by ameliorating Aβ-induced reduction of estradiol production by ABAD.^20, 23
This assay methodology allows direct screening of compound activity in the presence of Aβ and provides direct evidence of the ability of compounds to rescue Aβ-induced reduction of estradiol production by ABAD. To measure the effect of AG18051 alone in SH-SY5Y cell lines, a 0.01-100 μM dose-response range was tested, and their effect on estradiol levels (FIG. 2B). […] To evaluate the effect of the increase of AG18051 dose in maintaining estradiol levels reduced by Aβ, AG18051 was tested in increasing concentrations in the presence of Aβ (FIG. 2B).

SH-SY5Y cells [2] = test: Cell viability of SH-SY5Y cells with compound alone; format: cell-based, human; settings: up to 100 μM
Procedure: as §1
Cell Viability Assays. The SH-SY5Y cells were plated at a density of 50,000 cells/well in 96-well plates and allowed to adapt overnight in a humidified atmosphere containing 5% CO2 at 37° C. The cells were pretreated (24 hours) with the test compound and exchanged to a serum-free DMEM/low glucose media, prior to incubation with 25 μM of Aβ. Cell viability was measured after 48 hours using commercial MTS assay or lactate dehydrogenase (LDH) cytotoxicity assay. […]

SH-SY5Y cells [3] = test: Aβ-induced toxicity in SH-SY5Y cells, lactate dehydrogenase (LDH) release assay; format: cell-based, human; settings: 1 μM, pretreated 24 hrs, then 25 μM Aβ 48 hrs
Procedure: as §1, §2
Cell Viability Assays. […] Cell viability was measured after 48 hours using commercial MTS assay or lactate dehydrogenase (LDH) cytotoxicity assay. […]

[4] = cited from earlier work
ABAD [5] = molecular target: T2, ABAD (Homo sapiens, UniProt Q99714); test: Estradiol levels in SH-SY5Y cells treated with the substance alone; format: cell-based; set-up: To measure the effect of AG18051 alone in SH-SY5Y cell lines; endogenous in cells; host or cells: SH-SY5Y
T2 sequence (Q99714 1-261): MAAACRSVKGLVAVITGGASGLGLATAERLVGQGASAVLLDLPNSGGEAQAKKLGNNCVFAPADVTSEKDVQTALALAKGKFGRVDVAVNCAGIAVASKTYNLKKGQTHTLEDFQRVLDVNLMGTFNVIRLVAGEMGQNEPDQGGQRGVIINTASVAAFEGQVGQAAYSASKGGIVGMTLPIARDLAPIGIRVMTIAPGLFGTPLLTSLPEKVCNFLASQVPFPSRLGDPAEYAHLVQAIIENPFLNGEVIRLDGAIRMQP
Procedure: Estradiol ELISA assay. […] An estradiol assay was performed. In brief, the plate was loaded with samples, along with the estradiol tracer and the specific antiserum to estradiol and incubated for one hour at room temperature. After five washing steps, Ellman's Reagent was added, and the plate developed for 60 minutes with gentle shaking at room temperature. The calculated estradiol concentration was normalized to the total protein content of the samples.

SH-SY5Y cells [6] = test: Aβ-induced toxicity in SH-SY5Y cells, MTS assay; format: cell-based, human; settings: pretreated 24 hrs, then 25 μM Aβ 48 hrs
Procedure: as §1, §2
Cell Viability Assays. The SH-SY5Y cells were plated at a density of 50,000 cells/well in 96-well plates and allowed to adapt overnight in a humidified atmosphere containing 5% CO2 at 37° C. The cells were pretreated (24 hours) with the test compound and exchanged to a serum-free DMEM/low glucose media, prior to incubation with 25 μM of Aβ. Cell viability was measured after 48 hours using commercial MTS assay or lactate dehydrogenase (LDH) cytotoxicity assay.
Employing human neuroblastoma SH-SY5Y ‘neuron-like’ cells, known to express ABAD,^20 experimental conditions are described herein that result in reproducible loss of 65% cell viability upon treatment with 25 μM Aβ after 48-hour incubation (FIG. 4A). Compound 1 (AG18051) and its analog 14b were screened for toxic effects in the SH-SY5Y cell lines.
HupA at 10 μM concentration provided 74% protection from Aβ-induced toxicity. […] Again, synthesized compound 14b at 1 μM, afforded greater protection than HupA at 10 μM concentration.

ABAD [7] = molecular target: T2, ABAD; settings: at 10 μM concentration; cited from earlier work

| Structure (SMILES) | basal respiration: restored share of the cell respiration reduced by Aβ (SH-SY5Y cells [1]; 1 μM pretreatment 24 hrs, then 25 μM Aβ 48 hrs) [%] | proton leak, ATP production and maximal respiration: restoration of mitochondrial function lost by Aβ (SH-SY5Y cells [1]; 1 μM pretreatment) | IC50 (Aβ-ABAD PPI; compounds 24 hours then Aβ 72 hours, amelioration of Aβ-induced reduction of estradiol levels, read-out: IC50 (estradiol assay)) | estradiol levels in the presence of Aβ (Aβ-ABAD PPI; preincubated 24 hours prior to Aβ exposure, compared to Aβ-only control, listed as AG18051) | toxicity to reduce cell viability (SH-SY5Y cells [2]) | LDH release compared with Aβ treatment alone (SH-SY5Y cells [3]) | solubility [4] | effect on estradiol levels, compound alone (ABAD [5]; 0.01-100 μM dose-response range) | decrease in estradiol levels compared to control (ABAD [5]; compound alone at 100 μM) [%] | protection of cell viability (MTS assay) (SH-SY5Y cells [6]; 1 μM) [%] | basal respiration: restored respiration levels (SH-SY5Y cells [1]; 10 μM pretreatment 24 hrs, then 25 μM Aβ 48 hrs) [%] | proton leak, ATP production and maximal respiration: restoration of mitochondrial function lost by Aβ (SH-SY5Y cells [1]; 10 μM pretreatment) | ABAD inhibition activity (ABAD [7]) | protection from Aβ-induced toxicity (MTS assay) (SH-SY5Y cells [6]; 10 μM) [%] |
| --- | --- | --- | --- | --- | --- | --- | --- | --- | --- | --- | --- | --- | --- | --- |
| O=C(C(c1ccccc1)n1cnc2[nH]ncc2c1=S)N1CCCCCC1 (centres unmarked) [Compound 1, 1-(azepan-1-yl)-2-phenyl-2-(4-thioxo-1,4-dihydro-5H-pyrazolo[3,4-d]pyrimidin-5-yl)ethan-1-one, reference compound] | 37 | trend to restore | 1.22 µM and 1.2 µM | significantly maintained estradiol levels; also recorded: dose-dependent increase in estradiol levels | no toxicity | significantly reducing LDH release | poor solubility | no significant reduction in estradiol levels | 20 | 79 |  |  |  |  |
| C/C=C1\[C@H]2C=C(C)C[C@]1(N)c1ccc(=O)[nH]c1C2 [Huperzine A] |  |  |  |  |  |  |  |  |  |  | 46 | trend to restore | possess ABAD inhibition activity | 74 |
